Test results: patent publication US20060025394A1, “Estradiol-related compounds and methods of use as anti-tumor agents” (priority 2003, published 2006)

Columns and labels:
DU-145 = test: Cytotoxicity testing (Example 7), MTS, DU-145; format: cell-based; conditions: for DU145 % Cell#: five days, MTS
Procedure: (§1) Cytotoxicity Studies were done in DU-145 and MCF-7 Cells. […] We set out to test the efficacy of these compounds based on known affinities for ER-α previously reported. Cells were treated for five days with 1 mM of each compound in a defined media. Cell number was estimated by the MTS method. Similar studies were carried out in the MCF-7 cell line known to express both ER-α and -β, and display proliferative properties in the presence of classic estrogens.

MCF-7 = test: Cytotoxicity testing (Example 7), MTS, MCF-7; format: cell-based
Procedure: as §1

NCR nude mice = conditions: 5 to 40 mg/kg/day bolus IM injection, 40-day period
Procedure: Doses included 5 to 40 mg/kg/day bolus IM injection. Toxicity effects were gauged based on changes in animal weight and gross analysis of specific organs including liver, lung, prostate, brain, spleen, heart, and kidney, collected, and fixed in paraffin sections.

DU145 = test: MTS cell viability assay in DU145; format: cell-based; conditions: DU145, concentrations above 1 μM
Procedure: (§2) DU145, LNCaP, PC3, and MCF-7 cells were obtained from the American Type Culture Collection (Manassas, Va.). DU145, PC3, and MCF-7 cells were maintained in Dulbecco's modified Eagle's medium/F-12 supplemented with 5% heat inactivated Fetal Calf Serum and Penicillin/Streptomycin (Invitrogen Life Technologies, Carlsbad, Calif.). LNCaP cells were maintained in RPMI 1640 medium supplemented in the same fashion. Cells were cultured in 75 cm^2 flasks (Falcon, BD Biosciences, Bedford, Mass.) at 37° C. and 5% CO2. For the MTS assay (Example 3), five thousand cells were plated in each well of a 24 well plate (Falcon), were allowed to attach for a 48-hour period in the media described, and changed to a defined medium, (DMEM/F-12 or RPMI1640) supplemented with insulin (BD Biosciences). A 1000× solution of the compound of interest solubilized in DMSO (Sigma, Saint Louis, Mo.) was diluted in the defined media just prior to starting each experiment, and media was refreshed every 48 to 72 hours throughout the experiments.
(§3) . Upon completing five days of treatment, the medium in each well was exchanged for 400 μL of an MTS solution (3-(4,5-dimethylthiazol-2-yl)-5-(3-carboxymethoxyphenyl)-2-(4-sulfophenyl)-2H-tetrazolium, inner salt; O'Toole SA, 2003, Cancer Detect Prev., 2003;27(1):47-54) spiked into media as per the manufacture's instructions (Promega, Madison, Wis.) and incubated for 2 hours at 37° C. before reading the absorbance on the μQuant UV/VIS plate reader, in conjunction with KCjunior Software (Bio-Tek Instruments, Winooski, Vt.) set at 490 nm. All experiments were carried out in quadruplicate, control wells were treated with the carrier DMSO. E2, which is estradiol-17β (Steraloids®, Newport, R.I.) and resveratrol (Sigma) were used as controls. […]

[1] = tested on: DU145, PC3, and LNCaP cell lines; test: MTS assay, values averaged or stated over the CaP cell lines; format: cell-based; conditions: average
Procedure: as §2, §3

[2] = Table 4 comparative study, 1 mM
[3] = Table 4 comparative study, five days, 1 mM
[4] = Table 3, 1 mM of each compound, defined media
[5] = Table 3, five days, 1 mM of each compound, defined media

SMILES | DU145 % Cell# (DU-145; [2]) | MCF-7 % Cell# (MCF-7; [3]) | DU145 % Cell# (DU-145; [4]) | MCF-7 % Cell# (MCF-7; [5]) | also measured
C[C@]1(O)CC[C@H]2[C@@H]3CCC4=CC(=O)CCC4=C3C=C[C@@]21C [Compound 29, RU 1881, reference compound] | 99% | 94% | – | – | –
CC12CCC3c4ccc(O)cc4CCC3C1CCC2(O)C=Cc1ccc(C(F)(F)F)cc1 (stereo not shown) [Compound 25] | – | – | 5% | 13% | general toxicity (animal weight, gross analysis of organs) (NCR nude mice): No apparent detrimental effects; overall result in cytotoxicity testing (Table 3) (DU-145): good results
CC12CCC3c4ccc(O)cc4CCC3C1CCC2(O)C=Cc1ccccc1CO (stereo not shown) [Compound 20] | – | – | 97% | 24% | –
CC12CCC3c4ccc(O)cc4CCC3C1CCC2(O)C=Cc1ccccc1 (stereo not shown) [Compound 1] | – | – | 62% | 22% | –
CN(C)CCOc1ccc([C@H]2C[C@]3(C)[C@@H](O)CC[C@H]3[C@@H]3CCc4cc(O)ccc4[C@H]32)cc1 [Compound 31, RU 39411, reference compound] | 102% | 102% | – | – | –
CC12CCC3c4ccc(O)cc4CCC3C1CCC2(O)C=Cc1ccc(C#N)cc1 (stereo not shown) [Compound 10] | – | – | 92% | 23% | –
CC12CCC3c4ccc(O)cc4CCC3C1CCC2(O)C=Cc1ccccc1[N+](=O)[O-] (stereo not shown) [Compound 49] | – | – | 17% | 29% | –
Cc1ccc(C=CC2(O)CCC3C4CCc5cc(O)ccc5C4CCC32C)cc1 (stereo not shown) [Compound 3] | – | – | 33% | 23% | –
CC12CCC3c4ccc(O)cc4CCC3C1CCC2(O)C=Cc1ccc([N+](=O)[O-])cc1 (stereo not shown) [Compound 46] | – | – | 44% | 35% | –
COC(=O)c1ccccc1C=CC1(O)CCC2C3CCc4cc(O)ccc4C3CCC21C (stereo not shown) [Compound 12] | – | – | 92% | 30% | –
COC(=O)c1ccc(C=CC2(O)CCC3C4CCc5cc(O)ccc5C4CCC32C)cc1 (stereo not shown) [Compound 15] | – | – | 92% | 32% | –
C[C@]12CC[C@@H]3c4ccc(O)cc4CC[C@H]3[C@@H]1CC[C@@H]2O [Compound E2, estradiol-17β, reference compound] | 100% | 90% | 100% | 90% | cytotoxic or proliferative effects (DU145): no apparent cytotoxic or proliferative effects; difference in cell number over non-treated cells ([1]; negative control): 0±3.4%
CC12CCC3c4ccc(O)cc4CCC3C1CCC2(O)C=Cc1ccccc1F (stereo not shown) [Compound 2] | – | – | 80% | 40% | –
CC12CCC3c4ccc(O)cc4CCC3C1CCC2(O)C=Cc1ccc(C(=O)O)cc1 (stereo not shown) [Compound 8] | – | – | 99% | 120% | –
CC12CCC3c4ccc(O)cc4CCC3C1CCC2(O)C=Cc1ccccc1CO (stereo not shown) [Compound 16] | – | – | 105% | 55% | –
CC12CCC3c4ccc(O)cc4CCC3C1CCC2(O)C=Cc1ccccc1 (stereo not shown) [Compound 48] | – | – | 47% | 27% | –
CC12CCC3c4ccc(O)cc4CCC3C1CCC2(O)C=CBr (stereo not drawn) [Compound 22, 17α-Br-vinyl-E2, reference compound] | – | – | 91% | 59% | –
C=CC1(O)CCC2C3CCc4cc(O)ccc4C3CCC21C (stereo not drawn) [Compound 13, 17α-vinyl-E2, reference compound] | – | – | 98% | 53% | –

SMILES | DU145 % Cell# (DU-145; [2]) | MCF-7 % Cell# (MCF-7; [3]) | DU145 % Cell# (DU-145; [4]) | MCF-7 % Cell# (MCF-7; [5]) | also measured
CC12CCC3c4ccc(O)cc4CCC3C1CCC2(O)C=Cc1ccc(F)cc1 (stereo not shown) [Compound 9] | – | – | 17% | 27% | overall result in cytotoxicity testing (Table 3) (DU-145): good results
COc1ccc2c(c1)CCC(c1ccccc1)=C2c1ccc(OCCN2CCCC2)cc1.Cl [Compound 34, 4-11, 100A, reference compound] | 29% | 32% | – | – | –
Cc1cccc(C=CC2(O)CCC3C4CCc5cc(O)ccc5C4CCC32C)c1 (stereo not shown) [Compound 5] | – | – | 9% | 24% | overall result in cytotoxicity testing (Table 3) (DU-145): good results
C[C@]12CC[C@@H]3c4ccc(O)cc4C[C@@H](CCCCCCCCC[S+]([O-])CCCC(F)(F)C(F)(F)F)[C@H]3[C@@H]1CC[C@@H]2O (stereo partly shown) [Compound 32, ICI-182780, reference compound] | 94% | 62% | – | – | –
CC12CCC3c4ccc(O)cc4CCC3C1CCC2(O)C=Cc1ccc(F)cc1 (stereo not shown) [Compound 6] | – | – | 67% | 28% | –
COc1ccc(C=CC2(O)CCC3C4CCc5cc(O)ccc5C4CCC32C)cc1 (stereo not shown) [Compound 11] | – | – | 60% | 28% | –
CC/C(=C(\c1ccccc1)c1ccc(OCCN(C)C)cc1)c1ccccc1.O=C(O)CC(O)(CC(=O)O)C(=O)O [Compound 30, TAM Citr, reference compound] | 47% | 33% | – | – | –
C#C[C@]1(O)CC[C@H]2[C@@H]3CCC4=Cc5oncc5C[C@]4(C)[C@H]3CC[C@@]21C [Compound 35, Danazol, reference compound] | 92% | 107% | – | – | –
CC12CCC3c4ccc(O)cc4CCC3C1CCC2(O)C=Cc1ccccc1C(=O)O (stereo not shown) [Compound 24] | – | – | 103% | 61% | –
C[C@]12C[C@H](c3ccc(OCCCCCS(=O)(=O)CCCC(F)(F)C(F)(F)F)cc3)[C@@H]3c4ccc(O)cc4CC[C@H]3[C@@H]1CC[C@@H]2O [Compound 26, RU 58668, reference compound] | 73% | 37% | – | – | –
CC/C(=C(\c1ccccc1)c1ccc(OCCN(C)C)cc1)c1ccccc1 [Compound 33, Z-TAM, reference compound] | 56% | 25% | – | – | –
COC(=O)c1ccc(C=CC2(O)CCC3C4CCc5cc(O)ccc5C4CCC32C)cc1 (stereo not shown) [Compound 4] | – | – | 100% | 28% | –
C#C[C@]1(O)CC[C@H]2[C@@H]3CCc4cc(O)ccc4[C@H]3[C@H](OC)C[C@@]21C [Compound 37, RU16117, reference compound] | 101% | 103% | – | – | –
CC12CCC3c4ccc(O)cc4CCC3C1CCC2(O)C=Cc1cccc(C(F)(F)F)c1 (stereo not shown) [Compound 23] | – | – | 5% | 19% | overall result in cytotoxicity testing (Table 3) (DU-145): good results
Oc1ccc(C=Cc2cc(O)cc(O)c2)cc1 [resveratrol] | – | – | – | – | decrease in cell number ([1]; positive control): 65±5.3%
CC/C(=C(\c1ccccc1)c1ccc(OCCN(C)C)cc1)c1ccccc1 [Compound 27, ICI 47, 699, reference compound] | 12% | 21% | – | – | –
CC12CCC3c4ccc(O)cc4CCC3C1CCC2(O)C=Cc1ccccc1C(F)(F)F (stereo not shown) [Compound 19] | – | – | 5% | 20% | overall result in cytotoxicity testing (Table 3) (DU-145): good results
